Among the data in US20260232658A1, “AZETIDINYL BENZOXAZOLE COMPOUNDS AND THEIR USE AS MER AND AXL INHIBITORS” (DONG-A ST CO., LTD., priority 2022, published 2026) are IC50 values, retold here.

pIC50: −log10 of the molar value.

The target in one assay is T1, human AXL (473-end) (Homo sapiens, UniProt P30530).
T1 construct: human AXL (473-end); purchased SignalChem, Canada
T1 sequence (P30530 473-894 limits assumed): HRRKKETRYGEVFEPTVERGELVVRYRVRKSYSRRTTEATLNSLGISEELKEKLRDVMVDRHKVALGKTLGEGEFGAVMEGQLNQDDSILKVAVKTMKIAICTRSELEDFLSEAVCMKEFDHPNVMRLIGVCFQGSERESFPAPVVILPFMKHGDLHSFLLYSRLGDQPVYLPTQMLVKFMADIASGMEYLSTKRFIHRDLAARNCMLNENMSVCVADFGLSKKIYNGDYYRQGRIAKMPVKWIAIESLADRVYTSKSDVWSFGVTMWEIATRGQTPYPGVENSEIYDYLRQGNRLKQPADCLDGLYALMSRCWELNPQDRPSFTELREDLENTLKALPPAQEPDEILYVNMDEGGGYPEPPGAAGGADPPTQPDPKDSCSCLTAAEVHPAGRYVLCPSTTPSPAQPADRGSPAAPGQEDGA
Put plainly: HTRF kinase activity biochemical assay, AXL.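 Note: phosphorylation of a biotinylated tyrosine kinase substrate detected via Eu3+-cryptate anti-TK antibody and streptavidin-XL665, fluorescence read after a 1 h incubation at room temperature.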 The following applies: recombinant kinase, 10 uM ATP, 30 minutes pre-incubation; read-out: HTRF AXL IC50. Background: In TR-FRET formats the signal depends on donor and acceptor labels being close together.

For a further assay, the target named is T2, human MER (528-end) (Homo sapiens, UniProt Q12866).
T2 construct: human MER (528-end); purchased Carnabio, Japan
T2 sequence (Q12866 528-999 limits assumed): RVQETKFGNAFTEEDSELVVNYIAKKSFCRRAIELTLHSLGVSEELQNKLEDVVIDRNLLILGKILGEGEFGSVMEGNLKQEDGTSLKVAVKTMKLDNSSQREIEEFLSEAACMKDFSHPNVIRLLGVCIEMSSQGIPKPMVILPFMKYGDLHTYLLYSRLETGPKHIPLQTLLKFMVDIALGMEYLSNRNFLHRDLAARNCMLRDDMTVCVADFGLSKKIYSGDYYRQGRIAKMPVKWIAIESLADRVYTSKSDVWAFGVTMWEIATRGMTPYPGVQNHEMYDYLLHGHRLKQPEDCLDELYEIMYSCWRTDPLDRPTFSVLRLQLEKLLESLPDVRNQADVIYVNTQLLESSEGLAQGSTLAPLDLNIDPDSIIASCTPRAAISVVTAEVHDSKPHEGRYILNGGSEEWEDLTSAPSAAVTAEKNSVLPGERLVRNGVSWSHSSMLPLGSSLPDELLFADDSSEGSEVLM
Put plainly: HTRF kinase activity biochemical assay, MER.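 Note: phosphorylation of a biotin-tagged tyrosine kinase substrate detected by Eu3+-cryptate antibody and streptavidin-XL665 time-resolved fluorescence, read after 1 h at room temperature.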 The conditions noted are these: recombinant kinase, 10 uM ATP, 30 minutes pre-incubation; read-out: HTRF MERTK IC50.

The target in another assay is T3, TYRO3 (455-end) (Homo sapiens, UniProt Q06418).
T3 construct: TYRO3 (455-end); purchased SignalChem, Canada
T3 sequence (Q06418 455-890 limits assumed): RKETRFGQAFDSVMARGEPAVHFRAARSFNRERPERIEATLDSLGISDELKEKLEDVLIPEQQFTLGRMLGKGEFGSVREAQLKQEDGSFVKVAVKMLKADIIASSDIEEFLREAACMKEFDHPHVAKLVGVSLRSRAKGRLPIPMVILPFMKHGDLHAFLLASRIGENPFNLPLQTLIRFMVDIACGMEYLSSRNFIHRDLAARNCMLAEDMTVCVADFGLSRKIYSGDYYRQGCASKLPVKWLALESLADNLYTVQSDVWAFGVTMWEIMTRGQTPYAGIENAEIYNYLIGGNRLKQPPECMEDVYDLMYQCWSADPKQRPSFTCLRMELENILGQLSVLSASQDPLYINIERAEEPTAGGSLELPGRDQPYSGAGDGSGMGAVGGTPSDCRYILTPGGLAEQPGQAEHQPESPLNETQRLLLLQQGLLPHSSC
Put plainly: HTRF kinase activity biochemical assay, TYRO3.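 Note: biotinylated tyrosine kinase substrate phosphorylation detected via streptavidin-XL665 and Eu3+-cryptate anti-phospho antibody time-resolved fluorescence, read after 1 h detection at room temperature, 384-well format.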 The conditions noted are these: recombinant kinase, 10 uM ATP, 30 minutes pre-incubation; read-out: HTRF TYRO IC50.

The term pIC50 denotes −log10 of the IC50, conventionally taken in molar units. With `Cn1cc(Nc2ncc(C3CN(c4nc5ccc(OCC6COC6)cc5o4)C3)nc2C(N)=O)cn1` [Example 41, 3-[(1-methyl-1H-pyrazol-4-yl)amino]-6-(1-{6-[(oxetan-3-yl)methoxy]-1,3-benzoxazol-2-yl}azetidin-3-yl)pyrazine-2-carboxamide], the pIC50 at human AXL (473-end) was 8.70; at human MER (528-end), more than 9.00; at TYRO3 (455-end) it was 6.68.

As for `CC(C)(O)CCOc1ccc2nc(N3CC(c4cnc(Nc5cnn(C(C)(C)C)c5)c(C(N)=O)n4)C3)oc2c1` [Example 94, 3-[(1-tert-butyl-1H-pyrazol-4-yl)amino]-6-{1-[6-(3-hydroxy-3-methylbutoxy)-1,3-benzoxazol-2-yl]azetidin-3-yl}pyrazine-2-carboxamide], the pIC50 on human AXL (473-end) was 8.52; on human MER (528-end) it was more than 9.00; on TYRO3 (455-end), 6.04.

Take `Cn1cc(Nc2ncc(C3CN(c4nc5ccc(CC(=O)O)cc5o4)C3)nc2C(N)=O)cn1` [Example 65C, [2-(3-{6-carbamoyl-5-[(1-methyl-1H-pyrazol-4-yl)amino]pyrazin-2-yl}azetidin-1-yl)-1,3-benzoxazol-6-yl]acetic acid]: the pIC50 was 7.02 on human AXL (473-end), 7.46 at human MER (528-end) and 5.45 on TYRO3 (455-end).

Regarding `Cn1cc(Nc2ncc(C3CN(c4nc5ccc(C6=CCOC6)cc5o4)C3)nc2C(N)=O)cn1` [Example 15A, 6-{1-[6-(2,5-dihydrofuran-3-yl)-1,3-benzoxazol-2-yl]azetidin-3-yl}-3-[(1-methyl-1H-pyrazol-4-yl)amino]pyrazine-2-carboxamide], the pIC50 was 8.30 on human AXL (473-end), 8.70 at human MER (528-end) and 7.13 at TYRO3 (455-end).

Regarding `Cn1cc(Nc2ncc(C3CN(c4nc5ccc(C6CCCCC6)cc5o4)C3)nc2C(N)=O)cn1` [Example 7, 6-[1-(6-cyclohexyl-1,3-benzoxazol-2-yl)azetidin-3-yl]-3-[(1-methyl-1H-pyrazol-4-yl)amino]pyrazine-2-carboxamide], the pIC50 was 8.22 at human AXL (473-end), 8.52 on human MER (528-end) and 6.17 at TYRO3 (455-end).

Regarding `NC(=O)c1nc(C2CN(c3nc4ccccc4o3)C2)cnc1Nc1cn[nH]c1` [Example 14, 6-[1-(1,3-benzoxazol-2-yl)azetidin-3-yl]-3-[(1H-pyrazol-4-yl)amino]pyrazine-2-carboxamide], the figures for the pIC50 on human AXL (473-end), on human MER (528-end) and on TYRO3 (455-end) were 7.85, 8.10 and 6.31, respectively.

As for `Cn1cc(Nc2ncc(C3CN(c4nc5ccc(-c6ccccc6)cc5o4)C3)nc2C(N)=O)cn1` [Example 8, 3-[(1-methyl-1H-pyrazol-4-yl)amino]-6-[1-(6-phenyl-1,3-benzoxazol-2-yl)azetidin-3-yl]pyrazine-2-carboxamide], the figures for the pIC50 at human AXL (473-end), at human MER (528-end) and at TYRO3 (455-end) were 8.15, 8.70 and 6.55, respectively.

Consider `COCCn1cc(Nc2ncc(C3CN(c4nc5ccc(C)cc5o4)C3)nc2C(N)=O)cn1` [Example 55, 3-{[1-(2-methoxyethyl)-1H-pyrazol-4-yl]amino}-6-[1-(6-methyl-1,3-benzoxazol-2-yl)azetidin-3-yl]pyrazine-2-carboxamide], for which the values for the pIC50 at human AXL (473-end), on human MER (528-end) and on TYRO3 (455-end) were 7.85, 8.52 and 6.66, respectively.

As for `Cn1cc(Nc2ncc(C3CN(c4nc5ccc(C(=O)N6CCOCC6)cc5o4)C3)nc2C(N)=O)cn1` [Example 46, 3-[(1-methyl-1H-pyrazol-4-yl)amino]-6-{1-[6-(morpholine-4-carbonyl)-1,3-benzoxazol-2-yl]azetidin-3-yl}pyrazine-2-carboxamide], the pIC50 on human AXL (473-end) was 8.05; on human MER (528-end) it was 8.52; at TYRO3 (455-end) it was 8.05.

Take `CC(C)(O)CCOc1ccc2nc(N3CC(c4cnc(Nc5cn[nH]c5)c(C(N)=O)n4)C3)oc2c1` [Example 96B, 6-{1-[6-(3-hydroxy-3-methylbutoxy)-1,3-benzoxazol-2-yl]azetidin-3-yl}-3-[(1H-pyrazol-4-yl)amino]pyrazine-2-carboxamide]: the pIC50 on human AXL (473-end) was 8.15; at human MER (528-end) it was 8.70; at TYRO3 (455-end), 6.17.

On to `CC(C)(O)CCOc1ccc2nc(N3CC(c4cnc(Nc5cnn(COCC[Si](C)(C)C)c5)c(C(N)=O)n4)C3)oc2c1` [Example 96A, 6-{1-[6-(3-hydroxy-3-methylbutoxy)-1,3-benzoxazol-2-yl]azetidin-3-yl}-3-[(1-{[2-(trimethylsilyl)ethoxy]methyl}-1H-pyrazol-4-yl)amino]pyrazine-2-carboxamide], for which the pIC50 is 7.51 at human AXL (473-end), 7.96 at human MER (528-end) and 5.86 at TYRO3 (455-end).

On to `Cn1cc(Nc2ncc(C3CN(c4nc5ccc(CCC6(O)COC6)cc5o4)C3)nc2C(N)=O)cn1` [Example 45, 6-(1-{6-[2-(3-hydroxyoxetan-3-yl)ethyl]-1,3-benzoxazol-2-yl}azetidin-3-yl)-3-[(1-methyl-1H-pyrazol-4-yl)amino]pyrazine-2-carboxamide], for which the pIC50 on human AXL (473-end) was 8.05; at human MER (528-end) it was 8.52; at TYRO3 (455-end) it was 6.21.

As for `Cn1cc(Nc2ncc(C3CN(c4nc5ccc(OC[C@H]6C[C@H]6CO)cc5o4)C3)nc2C(N)=O)cn1` [Example 58, 6-[1-(6-{1[(1S,2R)-2-(hydroxymethyl)cyclopropyl]methoxy}-1,3-benzoxazol-2-yl)azetidin-3-yl]-3-[(1-methyl-1H-pyrazol-4-yl)amino]pyrazine-2-carboxamide], the pIC50 at human AXL (473-end) is 9.00; at human MER (528-end) it was more than 9.00; at TYRO3 (455-end), 7.48.

Turning to `Cn1cc(Nc2ccc(C3CN(c4nc5ccc(OCCC(C)(C)O)cc5o4)C3)nc2C(N)=O)cn1` [Example 84, 6-{1-[6-(3-hydroxy-3-methylbutoxy)-1,3-benzoxazol-2-yl]azetidin-3-yl}-3-[(1-methyl-1H-pyrazol-4-yl)amino]pyridine-2-carboxamide], the pIC50 at human AXL (473-end) is 8.15; on human MER (528-end), 8.70; at TYRO3 (455-end), 5.86.

For the compound `Cn1cc(Nc2ncc(C3CN(c4nc5ccc(C(=O)O)cc5o4)C3)nc2C(N)=O)cn1` [Example 18A, 2-(3-f{6-carbamoyl-5-[(1-methyl-1H-pyrazol-4-yl)amino]pyrazin-2-yl}azetidin-1-yl)-1,3-benzoxazole-6-carboxylic acid], the results for the pIC50 at human AXL (473-end), on human MER (528-end) and on TYRO3 (455-end) were 5.23, 5.43 and less than 4.90, respectively.

On to `Cn1cc(Nc2ncc(C3CN(c4nc5ccc(C6CCOC6)cc5o4)C3)nc2C(N)=O)cn1` (stereo not drawn) [Example 15, 3-[(1-methyl-1H-pyrazol-4-yl)amino]-6-{1-[6-(oxolan-3-yl)-1,3-benzoxazol-2-yl]azetidin-3-yl}pyrazine-2-carboxamide], for which the figures for the pIC50 on human AXL (473-end), on human MER (528-end) and at TYRO3 (455-end) were 8.05, 8.52 and 6.26, respectively.

Turning to `Cn1cc(Nc2ncc(C3CN(c4nc5ccc(OCC(=O)N6CCC6)cc5o4)C3)nc2C(N)=O)cn1` [Example 73, 6-(1-{6-[2-(azetidin-1-yl)-2-oxoethoxy]-1,3-benzoxazol-2-yl}azetidin-3-yl)-3-[(1-methyl-1H-pyrazol-4-yl)amino]pyrazine-2-carboxamide], the pIC50 was 8.05 on human AXL (473-end), 8.70 at human MER (528-end) and 5.77 on TYRO3 (455-end).
